# Measured values: US7368431B2, “Polypeptide, the conjugate thereof with doxorubicine and a pharmaceutical composition based thereon” (Zakrytoe Aktsionernoe Obschestvo “Russkie Biotechnologll”, priority 2001, dated 2008)
# pIC50: −log10 of the molar value. Peptide text beside a SMILES is read from it. * marks the point of attachment. X1 = COc1cccc2c1C(=O)c1c(O)c3c(c(O)c1C2=O)C[C@@](O)(C(=O)CO)C[C@@H]3O[C@H]1C[C@H](N=CCCCC=N[C@@H](CCSC)C(=O)*)[C@H](O)[C@H](C)O1
# Experiments:
# [1] = tested on: human ovary carcinoma cell line SKOV3; assay: Cytotoxicity, MTT cell survival; type: cell-based
# Experimental: (§1) Efficacy of the conjugate was studied on the following cell lines: human breast carcinoma cell line MCF-7^wt and resistant human breast carcinoma cell line MCF-7^AdrR; human ovary carcinoma cell line SKOV3 and resistant human ovary carcinoma cell line SKVLB; and murine melanoma cell line B16.
# (§2) Study protocol was common for all test runs. The cells cultivated in plastic flasks (COSTAR) in the RPMI medium (SIGMA), which contained 10% of fetal bovine serum (SIGMA), 100 U/ml of penicillin and 100 μg/ml of streptomycin, in a wet environment of 5% CO2 at 37° C., were inoculated in 96-well plates (Costar), 10000 in each well, and studied drugs were then added at different concentrations. After that, the cells were incubated for 72 hours. Two-four hours prior to the end of the incubation period, 50 μl (1 mg/ml) of the MTT solution (3-[4,5-dimethylthiazole-2yl]-2,5-diphenyltetrazole bromide (SIGMA) in the culture medium were added in each well. After the development of coloration, the medium was removed, formazan crystals were dissolved in 150 μl of dimethyl sulfoxide, and the absorbance was measured by spectrophotometry at 540 nm. Survival rates of the cells exposed to free and conjugated DR were determined in percent relative to the survival rate of controls taken as 100%.
# [2] = tested on: resistant human breast carcinoma cell line MCF-7^AdrR; assay: Cytotoxicity, MTT cell survival; type: cell-based; conditions: 72 hours
# Experimental: as §1, §2
# [3] = tested on: resistant human ovary carcinoma cell line SKVLB; assay: Cytotoxicity, MTT cell survival; type: cell-based; conditions: SKVLB^AdrR, 72 hours
# Experimental: as §1, §2
# [4] = tested on: human breast carcinoma cell line MCF-7^wt; assay: Cytotoxicity, MTT cell survival; type: cell-based; conditions: 72 hours
# Experimental: as §1, §2
# [5] = tested on: murine melanoma cell line B16; assay: Cytotoxicity, MTT cell survival; type: cell-based; conditions: B16, 72 hours
# Experimental: as §1, §2
# [6] = tested on: subcutaneously implanted line B16 cancer cells; assay: Murine implanted tumor model, intravenous administration; type: in vivo; conditions: mice, s.c. B16, i.v. 0.2 mg/kg of doxorubicin once every four days; for Increase in ADL, %: three injections, relative to controls
# Experimental: The medicines were administered at a dose of 0.2 mg/kg of doxorubicin once every four days, three injections in total, starting from day 3 after the cancer implantation.
# [7] = tested on: line NIH 3T3 murine fibroblast cells; assay: Proliferative activity, 3H-thymidine incorporation; type: cell-based; conditions: NIH 3T3 fibroblasts, 0.1-1000 ng/ml, compared with known polypeptide I (EGF fragment), FIG. 1
# Experimental: Proliferative activity of the polypeptide was tested on line NIH 3T3 murine fibroplat cells. The rate of DNA biosynthesis was judged from the amount of ^3H-timidine incorporated in the […] cell fraction. Line NIH 3T3 murine fibroblast cells were cultivated in plastic flasks in the RPM1 medium (SIGMA), which contained 10% of fetal bovine serum (SIGMA), 100 U/mb of penicillin and 100 μg/ml of streptomycin, in a wet environment of 5% CO2 at 37° C. Proliferation of synchronized line NIH 3T3 fibroblasts was induced by adding to the cellular suspension the proposed polypeptide at a different concentration (0.1-1000 ng/ml). The fibroblasts were cultivated in 96-well plates in the complete medium, 200-800 cells in each well containing 200 μl of the medium. ^3H-thymidine (1 μCi/well, […]) was added 2 hours prior to the end of the incubation period. Radioactivity was measured by a scintillation counter (RACKBETA, LKB) with the use of a toluene-based scintillation fluid ZhS-8. The rate of DNA biosynthesis was expressed as the stimulation index (stimulated-to-control cell ratio) calculated by the formula: I=N/No×100%, where I is the stimulation index, N is the number of EGF-stimulated cells, and No is the number of control cells. […]
# [8] = Homo sapiens, Breast carcinoma cell
Compound,"pIC50 ([1]; Homo sapiens, SK-OV-3, SKOV3, 72 hours)","pIC50 [2, 8]",pIC50 ([3]; Homo sapiens),"pIC50 [4, 8]",pIC50 ([5]; Mus musculus),ADL (average duration of life) ([6]; three injections from day 3) [days],"Increase in ADL, % [6] [%]","proliferative effect (incorporated 3H-thymidine, stimulation index) [7]","pIC50 ([1]; SKOV3, 72 hours)",pIC50 [2],pIC50 [3],pIC50 [4],pIC50 [5],"onset of tumors and their growth ([6]; three injections from day 3, compared with free DR)","Increase in ADL, % ([6]; listed as Conjugate, 0.2 mg/kg) [%]","Increase in ADL, % ([6]; listed as conjugate, 0.2 mg/kg) [%]"
"COc1cccc2c1C(=O)c1c(O)c3c(c(O)c1C2=O)C[C@@](O)(C(=O)CO)C[C@@H]3O[C@H]1C[C@H](N)[C@H](O)[C@H](C)O1 [DR, doxorubicin]",6.68,5.43,5.70,7.23,7.46,23.6 ± 4.0,−24.8,–,–,–,–,–,–,–,–,–
"NH2-Met-Tyr-Ile-Glu-Ala-Leu-Asp-Ser-Tyr-Ala-Cys-COOH (H-MYIEALDSYAC-OH) [proposed polypeptide, synthetic polypeptide H2N-…-COOH similar to EGF fragment 21 to 31, Lys replaced with Ser]",–,–,–,–,–,–,–,more pronounced dose-dependent proliferative effect,–,–,–,–,–,–,–,–
CC[C@H](C)[C@H](NC(=O)[C@H](Cc1ccc(O)cc1)NC(=O)[C@H](CCSC)N=CCCCC=N[C@H]1C[C@H](O[C@H]2C[C@](O)(C(=O)CO)Cc3c(O)c4c(c(O)c32)C(=O)c2c(OC)cccc2C4=O)O[C@@H](C)[C@H]1O)C(=O)N[C@@H](CCC(=O)O)C(=O)N[C@@H](C)C(=O)N[C@@H](CC(C)C)C(=O)N[C@@H](CC(=O)O)C(=O)N[C@@H](CO)C(=O)N[C@@H](Cc1ccc(O)cc1)C(=O)N[C@@H](C)C(=O)N[C@@H](CS)C(=O)O [Polypeptide-DR conjugate] (X1-YIEALDSYAC-OH),–,–,–,–,–,46.6 ± 5.7,–,–,7.66,6.82,7.15,8.89,8.96,considerable delay in the onset of tumors and slowed their growth,48.5,46
